From patent US20170190671A1, “BIS(ARYL)CATECHOL DERIVATIVES AS HERBICIDES” (E I DU PONT DE NEMOURS AND COMPANY, priority 2014, published 2017)

Experiments:
Experiment in all cases: Test C preemergence
Format in all cases: in vivo
[1] = test system: barnyardgrass (Echinochloa crus-galli); settings: Echinochloa crus-galli, pre-emergence, read-out: Plant response rating, Barnyardgrass
Outline: (§1)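 Greenhouse test; preemergence on seeded loam-sand soil or spray on 1- to 4-leaf plants; solvent + surfactant vehicle; 13-15 day hold; visual comparison with controls; 0 (no effect)-100 (complete control).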

[2] = test system: blackgrass (Alopecurus myosuroides); settings: Alopecurus myosuroides, pre-emergence, 336 h, scale 0 to 100, read-out: Plant response rating, Blackgrass
Outline: as §1

[3] = test system: ragweed (common ragweed, Ambrosia elatior); settings: Ambrosia artemisiifolia, pre-emergence, 336 h, scale 0 to 100, read-out: Plant response rating, Ragweed
Outline: as §1

[4] = test system: johnsongrass (Sorghum halepense); settings: Sorghum halepense, pre-emergence, 336 h, scale 0 to 100, read-out: Plant response rating, Johnsongrass
Outline: as §1

corn (Zea mays) = settings: Zea mays, pre-emergence, 336 h, scale 0 to 100
Outline: as §1

[5] = test system: lambsquarters (Chenopodium album); settings: Chenopodium album, pre-emergence, 336 h, scale 0 to 100, read-out: Plant response rating, Lambsquarters
Outline: as §1

[6] = test system: velvetleaf (Abutilon theophrasti); settings: Abutilon theophrasti, pre-emergence, scale 0 to 100, read-out: Plant response rating, Velvetleaf
Outline: as §1

[7] = test system: waterhemp (common waterhemp, Amaranthus rudis); settings: Amaranthus tuberculatus, pre-emergence, scale 0 to 100, read-out: Plant response rating, Waterhemp
Outline: as §1

[8] = test system: galium (catchweed bedstraw, Galium aparine); settings: Galium, pre-emergence, 336 h, scale 0 to 100, read-out: Plant response rating, Galium
Outline: as §1

[9] = test system: morningglory (Ipomoea coccinea); settings: Ipomoea, pre-emergence, 336 h, scale 0 to 100, read-out: Plant response rating, Morningglory
Outline: as §1

soybean (Glycine max) = settings: Glycine max, pre-emergence, scale 0 to 100, read-out: Plant response rating, Soybean
Outline: as §1

[10] = test system: Italian ryegrass (Lolium multiflorum); settings: Lolium multiflorum, pre-emergence, 336 h, scale 0 to 100, read-out: Plant response rating, Ryegrass, Italian
Outline: as §1

[11] = test system: pigweed (Amaranthus retroflexus); settings: Amaranthus retroflexus, pre-emergence, 336 h, scale 0 to 100, read-out: Plant response rating, Pigweed
Outline: as §1

[12] = test system: yellow nutsedge (Cyperus esculentus); settings: Cyperus, pre-emergence, 336 h, scale 0 to 100, read-out: Plant response rating, Nutsedge, Yellow
Outline: as §1

FC(F)c1cccc(Oc2ncc(Cl)cn2)c1Oc1ncc(Cl)cn1 [Compound 46, 2,2′-[[3-(difluoromethyl)-1,2-phenylene]bis(oxy)]bis[5-chloropyrimidine]]
pest or weed control at 31 g/ha ([1]; 31 g ai/ha, preemergence, scale 0 to 100): 70%
pest or weed control at 62 g/ha ([1]; 62 g ai/ha, preemergence, scale 0 to 100): 100%
pest or weed control at 125 g/ha ([1]; 125 g ai/ha, preemergence, scale 0 to 100): 100%
pest or weed control at 16 g/ha ([1]; Preemergence, 16 g ai/ha, scale 0 to 100 (0 no effect, 100 complete control)): 15%
pest or weed control at 31 g/ha ([2]; 31 g ai/ha, preemergence): 70%
pest or weed control at 62 g/ha ([2]; 62 g ai/ha, preemergence): 95%
pest or weed control at 125 g/ha ([2]; 125 g ai/ha, preemergence): 95%
pest or weed control at 16 g/ha ([2]; Preemergence, 16 g ai/ha): 0%
pest or weed control at 31 g/ha ([3]; 31 g ai/ha, preemergence): 25%
pest or weed control at 62 g/ha ([3]; 62 g ai/ha, preemergence): 35%
pest or weed control at 125 g/ha ([3]; 125 g ai/ha, preemergence): 100%
pest or weed control at 16 g/ha ([3]; Preemergence, 16 g ai/ha): 0%
pest or weed control at 31 g/ha ([4]; 31 g ai/ha, preemergence): 40%
pest or weed control at 62 g/ha ([4]; 62 g ai/ha, preemergence): 75%
pest or weed control at 125 g/ha ([4]; 125 g ai/ha, preemergence): 100%
pest or weed control at 16 g/ha ([4]; Preemergence, 16 g ai/ha): 5%
Corn plant response rating (crop injury, 0 = no effect, 100 = complete kill) at 31 g/ha (corn (Zea mays); 31 g ai/ha, preemergence): 25%
Corn plant response rating (crop injury, 0 = no effect, 100 = complete kill) at 62 g/ha (corn (Zea mays); 62 g ai/ha, preemergence): 25%
Corn plant response rating (crop injury, 0 = no effect, 100 = complete kill) at 125 g/ha (corn (Zea mays); 125 g ai/ha, preemergence): 90%
Corn plant response rating (crop injury, 0 = no effect, 100 = complete kill) at 16 g/ha (corn (Zea mays); Preemergence, 16 g ai/ha): 10%
pest or weed control at 31 g/ha ([5]; 31 g ai/ha, preemergence): 100%
pest or weed control at 62 g/ha ([5]; 62 g ai/ha, preemergence): 100%
pest or weed control at 125 g/ha ([5]; 125 g ai/ha, preemergence): 100%
pest or weed control at 16 g/ha ([5]; Preemergence, 16 g ai/ha): 75%
pest or weed control at 31 g/ha ([6]; 31 g ai/ha, preemergence): 100%
pest or weed control at 62 g/ha ([6]; 62 g ai/ha, preemergence): 95%
pest or weed control at 125 g/ha ([6]; 125 g ai/ha, preemergence): 100%
pest or weed control at 16 g/ha ([6]; Preemergence, 16 g ai/ha): 25%
pest or weed control at 31 g/ha ([7]; 31 g ai/ha, preemergence): 100%
pest or weed control at 62 g/ha ([7]; 62 g ai/ha, preemergence): 100%
pest or weed control at 125 g/ha ([7]; 125 g ai/ha, preemergence): 100%
pest or weed control at 16 g/ha ([7]; Preemergence, 16 g ai/ha): 75%
pest or weed control at 31 g/ha ([8]; 31 g ai/ha, preemergence): 85%
pest or weed control at 62 g/ha ([8]; 62 g ai/ha, preemergence): 95%
pest or weed control at 125 g/ha ([8]; 125 g ai/ha, preemergence): 100%
pest or weed control at 16 g/ha ([8]; Preemergence, 16 g ai/ha): 5%
pest or weed control at 31 g/ha ([9]; 31 g ai/ha, preemergence): 90%
pest or weed control at 62 g/ha ([9]; 62 g ai/ha, preemergence): 80%
pest or weed control at 125 g/ha ([9]; 125 g ai/ha, preemergence): 100%
pest or weed control at 16 g/ha ([9]; Preemergence, 16 g ai/ha): 20%
plant injury at 31 g/ha (soybean (Glycine max); 31 g ai/ha, preemergence): 40%
plant injury at 62 g/ha (soybean (Glycine max); 62 g ai/ha, preemergence): 65%
plant injury at 125 g/ha (soybean (Glycine max); 125 g ai/ha, preemergence): 95%
plant injury at 16 g/ha (soybean (Glycine max); Preemergence, 16 g ai/ha): 10%
pest or weed control at 31 g/ha ([10]; 31 g ai/ha, preemergence): 25%
pest or weed control at 62 g/ha ([10]; 62 g ai/ha, preemergence): 95%
pest or weed control at 125 g/ha ([10]; 125 g ai/ha, preemergence): 100%
pest or weed control at 16 g/ha ([10]; Preemergence, 16 g ai/ha): 0%
pest or weed control at 31 g/ha ([11]; 31 g ai/ha, preemergence): 100%
pest or weed control at 62 g/ha ([11]; 62 g ai/ha, preemergence): 100%
pest or weed control at 125 g/ha ([11]; 125 g ai/ha, preemergence): 100%
pest or weed control at 16 g/ha ([11]; Preemergence, 16 g ai/ha): 20%
pest or weed control at 31 g/ha ([12]; 31 g ai/ha, preemergence): 35%
pest or weed control at 62 g/ha ([12]; 62 g ai/ha, preemergence): 55%
pest or weed control at 125 g/ha ([12]; 125 g ai/ha, preemergence): 80%
pest or weed control at 16 g/ha ([12]; Preemergence, 16 g ai/ha): 0%
